Molecules are shown by their SMILES.

The data set can be described thus: RP, Thermo Scientific Acclaim RSLC 120 C18, 100 × 2.1 mm, 2.2 µm, 30 °C, 0.2 mL/min, estimated dead time 1.1 min; A: 90% water + 10% methanol + 0.01% formic acid + 5 mM ammonium formate, pH 3.61; B: methanol + 0.01% formic acid + 5 mM ammonium formate, pH 3.61; gradient (min/%B) 0/1 1/1 2/39 13/99.9 15/99.9 15.1/1 20.1/1. The note with it: stereoisomer not certain.
Turning to `CCCCC1C(=O)N(c2ccccc2)N(c2ccccc2)C1=O` [Phenylbutazone], the LC retention time was 8.98 min. In the case of `CNCC(O)c1cccc(O)c1` (stereo not drawn) [Phenylephrine (broad peak)], the LC retention time is 1.93 min. As for `CN(C)CCOc1ccccc1Cc1ccccc1` [Phenyltoloxamine], the LC retention time was 7.29 min. Regarding `O=C1NC(=O)C(c2ccccc2)(c2ccccc2)N1` [Phenytoin], the LC retention time is 7.08 min.

As to `CN1CCC23c4c5ccc(OCCN6CCOCC6)c4OC2C(O)C=CC3C1C5` (configuration not stated) [Pholcodine], the LC retention time was 2.73 min.

For `CNC(C)Cc1ccc(O)cc1` (configuration not stated) [Pholedrine (Amphetamine-P-Hydroxy-methyl)], the LC retention time was 2.91 min. With `CCOP(=O)(OCC)SCSCC` [Phorate-oxon] the figure was 8.6 min; with `CCOP(=S)(OCC)SCSCC` [Phorate], 11.4 min.

For `CCOP(=S)(OCC)SCn1c(=O)oc2cc(Cl)ccc21` [Phosalone], the LC retention time was 11.3 min.

For `COP(=S)(OC)SCN1C(=O)c2ccccc2C1=O` [Phosmet], the LC retention time is 8.94 min. For `CCN(CC)C(=O)C(Cl)=C(C)OP(=O)(OC)OC` [Phosphamidon (Dimecron)] the value was 6.27 min. With `CCOP(=S)(OCC)ON=C(C#N)c1ccccc1` [Phoxim] the figure was 11.2 min; with `NC(=O)c1ccccc1C(=O)O` [Phthalamic acid], 2.87 min.

For the compound `CCCCOC(=O)c1ccccc1C(=O)OCc1ccccc1` [Phthalate-Benzyl butyl], the LC retention time was 12.4 min. With `CCCCOC(=O)c1ccccc1C(=O)OCCCC` [Phthalate-Di-n-butyl] the figure was 12 min. For `CCCCCCCCOC(=O)c1ccccc1C(=O)OCCCCCCCC` [Phthalate-Di-n-octyl], the LC retention time is 15.3 min. With `O=C(Oc1ccccc1)c1ccccc1C(=O)Oc1ccccc1` [Phthalate-Diphenyl] the figure was 11.2 min; with `CCCCC(CC)COC(=O)c1ccccc1C(=O)OCC(CC)CCCC` (configuration not stated) [Phthalate-bis-(2-ethylhexyl). DEHP], 15 min. With `CNC(=O)Oc1ccc2c(c1)C1(C)CCN(C)C1N2C` (configuration not stated) [Physostigmine], the LC retention time was 3.89 min. As for `Nc1c(Cl)c(Cl)nc(C(=O)O)c1Cl` [Picloram], the LC retention time was 3.56 min. With `O=C(Nc1ccc(F)cc1)c1cccc(Oc2cccc(C(F)(F)F)c2)n1` [Picolinafen] the figure was 12.3 min. With `COC=C(C(=O)OC)c1ccccc1COc1cccc(C(F)(F)F)n1` [Picoxystrobin] the figure was 10.5 min; with `CCC1C(=O)OCC1Cc1cncn1C` (configuration not stated) [Pilocarpine], 2.74 min. For `O=c1[nH]c2ccccc2n1C1CCN(CCCC(c2ccc(F)cc2)c2ccc(F)cc2)CC1` [Pimozide] the value was 8.73 min; for `CCc1ccc(CCOc2ccc(CC3SC(=O)NC3=O)cc2)nc1` (configuration not stated) [Pioglitazone], 9.09 min; for `NC(=O)C1(N2CCCCC2)CCN(CCCC(=O)c2ccc(F)cc2)CC1` [Pipamperone], 6.11 min. For `c1cc2c(cc1CN1CCNCC1)OCO2` [Piperazine -1-Piperonyl], the LC retention time is 4.22 min.

For `Clc1ccc(C(c2ccccc2)N2CCNCC2)cc1` (configuration not stated) [Piperazine -1[(4-chlorophenyl) phenyl methyl]], the LC retention time is 8.53 min. `CCCc1nn(C)c2c(=O)[nH]c(-c3cc(C(=O)CN4CCCCC4)ccc3OCC)nc12` [Piperiacetildenafil]: the LC retention time was 7.14 min. For `CCCCOCCOCCOCc1cc2c(cc1CCC)OCO2` [Piperonyl butoxide] the value was 12.4 min.

Turning to `CN(C)S(=O)(=O)c1ccc2c(c1)N(CCCN1CCC(CCO)CC1)c1ccccc1S2` [Pipotiazine], the LC retention time was 7.39 min. Take `OC(c1ccccc1)(c1ccccc1)C1CCCCN1` (configuration not stated) [Pipradrol]: the LC retention time was 5.78 min. For `CCOC(=O)C=C1SC(N2CCCCC2)C(=O)N1CC` (configuration not stated) [Piprozolin] the value was 9.85 min; for `CN1CCN(CC(=O)N2c3ccccc3C(=O)Nc3cccnc32)CC1` [Pirenzepine], 4.11 min. For `NS(=O)(=O)c1cc(C(=O)O)cc(N2CCCC2)c1Oc1ccccc1` [Piretanide] the value was 7.17 min. With `CNc1nc(C)c(C)c(OC(=O)N(C)C)n1` [Pirimicarb-desmethyl] the figure was 5.89 min; with `Cc1nc(N(C)C)nc(OC(=O)N(C)C)c1C` [Pirimicarb], 7.77 min. With `CCOP(=S)(OCC)Oc1cc(C)nc(N(CC)CC)n1` [Pirimiphos-ethyl], the LC retention time was 12.3 min.

Regarding `CCN(CC)c1nc(C)cc(OP(=S)(OC)OC)n1` [Pirimiphos-methyl], the LC retention time was 11.3 min. For `N#CC(CCN1CCC(C(N)=O)(N2CCCCC2)CC1)(c1ccccc1)c1ccccc1` [Piritramide] the value was 8.19 min. With `CC1CCCC(C)N1CCCC(O)(c1ccccc1)c1ccccn1` (configuration not stated) [Pirmenol] the figure was 6.01 min.

With `CN1C(C(=O)Nc2ccccn2)=C(O)c2ccccc2S1(=O)=O` [Piroxicam], the LC retention time is 6.84 min. On to `COC(=O)c1ccccc1C(=O)c1ccc(OCCN2CCCCC2)cc1` [Pitofenone], for which the LC retention time is 5.44 min.

In the case of `CN1CCC(=C2c3ccccc3CCc3sccc32)CC1` [Pizotifen], the LC retention time is 7.86 min. With `CC(=O)Nc1ccc(OCC(O)CNC(C)C)cc1` (configuration not stated) [Practolol] the figure was 3.34 min; with `CCC[N+]12C(O)C(CC)C3CC1C1N(C)c4ccccc4C14CC2C3C4O` (configuration not stated) [Prajmaline], 6.07 min. Regarding `CCCNC1CCc2nc(N)sc2C1` (configuration not stated) [Pramipexole], the LC retention time is 2.64 min. With `CCC(C)C(=O)OC1CC(O)C=C2C=CC(C)C(CCC(O)CC(O)CC(=O)O)C21` (configuration not stated) [Pravastatin] the figure was 8.36 min; with `O=C1CN=C(c2ccccc2)c2cc(Cl)ccc2N1CC1CC1` [Prazepam], 10.6 min. On to `O=C(C1CCCCC1)N1CC(=O)N2CCc3ccccc3C2C1` (configuration not stated) [Praziquantel], for which the LC retention time was 9.32 min.

For the compound `COc1cc2nc(N3CCN(C(=O)c4ccco4)CC3)nc(N)c2cc1OC` [Prazosin], the LC retention time is 5.34 min. Regarding `CC1CC2C(C(O)CC3(C)C2CCC3(O)C(=O)CO)C2(C)C=CC(=O)C=C12` (configuration not stated) [Prednisolone-Methyl], the LC retention time is 8.75 min. For `CC12C=CC(=O)C=C1CCC1C2C(O)CC2(C)C1CCC2(O)C(=O)CO` (configuration not stated) [Prednisolone] the value was 7.84 min; for `CC12C=CC(=O)C=C1CCC1C2C(=O)CC2(C)C1CCC2(O)C(=O)CO` (configuration not stated) [Prednisone], 7.85 min. Turning to `CC(C)CC(CN)CC(=O)O` (configuration not stated) [Pregabalin], the LC retention time is 3.88 min.

With `CC(Cc1ccccc1)NCCC(c1ccccc1)c1ccccc1` (configuration not stated) [Prenylamine], the LC retention time was 8.89 min. With `CCCOCCN(C(=O)CCl)c1c(CC)cccc1CC` [Pretilachlor] the figure was 11.8 min.

Values taken from the RepoRT retention time repository (doi:10.1021/acs.analchem.2c02893).
